The text below walks through data of US12352767B2, “Method of treating cognitive decline associated with neurological diseases based on a decrease in FLT4 expression or activity” (University of Virginia Patent Foundation, priority 2018, dated 2025).

Entries after “also recorded” stand apart in the source; their conditions may differ.

One test deals with mice. The test is described as follows: Morris water maze test. It is filed as in vivo. Conditions: Visudyne/photoconversion twice, adult mice. As to the method:
The Morris water maze test was performed as described before^53, but with modifications. Mice were transported to the behavior room to habituate at least 30 min before starting the test. The MWM test consisted of 4 days of acquisition, 1 day of probe trial and 2 days of reversal. In the acquisition, mice performed four trials per day, for 4 consecutive days, to find a hidden 10-cm diameter platform located 1 cm below the water surface in a pool 1 m in diameter. Tap water was made opaque with nontoxic tempera white paint and the water temperature was kept at 23±1° C. A dim light source was placed within the testing room and only distal visual cues were available above each quadrant of the swimming pool to aid in the spatial navigation and location of the submerged platform. The latency to platform, e.g., the time required by the mouse to find and climb onto the platform, was recorded for up to 60 s. Each mouse was allowed to remain on the platform for 20 s and was then moved from the maze to its home cage. […] During the acquisition, probe and reversal, data were recorded using the EthoVision automated tracking system (Noldus Information Technology). The mean latency (in s) of the four trials was calculated for each day of test. The % of time in the platform quadrant was calculated for the probe trial. […] The mean % of allocentric navigation of four trials was calculated for each day.

Test [1] deals with hippocampal transcriptome. Put plainly: RNA-seq of whole hippocampus after meningeal lymphatic ablation (Table 2, Table 3). It is filed as in vivo, mice. As to the method:
After defrosting in ice, samples were mechanically dissociated in extraction buffer and RNA was isolated using the kit components according to the manufacturer's instructions (RNeasy mini kit, cat. no. 74106, Qiagen). The Illumina TruSeq Stranded Total RNA Library Prep Kit was used for cDNA library preparation from total RNA samples. Sample quality control was performed on an Agilent 4200 TapeStation Instrument, using the Agilent D1000 kit, and on the Qubit Fluorometer (Thermo Fisher Scientific). For RNA sequencing (RNA-seq), libraries were loaded on to a NextSeq 500 (Illumina) using an Illumina NextSeq High Output (150 cycle) cartridge (#FC-404-2002).
The raw sequencing reads (FASTQ files) were first chastity filtered, which removes any clusters that have a higher than expected intensity of the called base compared to other bases. The quality of the reads was then evaluated using FastQC^57, and after passing quality control (QC), the expression of the transcripts was quantified against the UCSC mm10 genome^58 using Salmon^59. These transcript abundances were then imported into R and summarized with tximport^60, and then DESeq2^61 was used to normalize the raw counts, perform exploratory analysis (e.g., principal component analysis), and to perform differential expression (DE) analysis. Before DE analysis of the meningeal LECs from adult vs old mice dataset, surrogate variable analysis^62 (SVA) was used to identify and adjust for latent sources of unwanted variation as implemented in the SVA package^63. The P-values from the DE analysis were corrected for multiple hypothesis testing with the Benjamini-Hochberg false discovery rate procedure (adj. P-value). Functional enrichment of DE genes, using gene sets from Gene Ontology (GO) and Kyoto Encyclopedia of Genes and Genomes (KEGG), was determined with Fisher's exact test as implemented in the clusterProfiler^64 Bioconductor package. Heatmaps of the DE genes and enriched gene sets were generated with the R package pheatmap^65. Normalized counts of selected transcripts were used to calculate the fold change relative to respective controls.

The test system of a further test is 5×FAD mice. The test is described as follows: Amyloid pathology in meninges and hippocampus of 5xFAD mice (Aβ immunostaining). It is filed as in vivo. As for the experimental part:
Male or female wild-type mice (C57BL/6J background) were either bred in-house, purchased from the Jackson Laboratory (Bar Harbor, Maine, USA) or provided by the National Institutes of Health/National Institute on Aging (Bethesda, MD, USA). All mice were maintained in the animal facility for habituation for at least 1 week prior to the start of the manipulation/experimentation. C57BL/6J wild-type mice were tested at 2-3, 12-14 and 20-24 months of age. Male hemizygous B6.Cg-Tg(PDGFB-APPSwInd)20Lms/2Mmjax (J20, JAX stock #006293) and B6.Cg-Tg(APPSwFILon,PSEN1*M146L*L286V)6799Vas/Mmjax (5×FAD, JAX stock #008730) were purchased from the Jackson Laboratory and bred in-house on a C57BL/6J background. […] 5×FAD hemizygous mice overexpress the transgene constructs under neural-specific elements of the mouse thymocyte differentiation antigen 1 promoter and present accelerated accumulation of Aβ42 and deposition of amyloid and gliosis in the brain starting at 2 months of age, with dramatic amyloid plaque load without major behavioral deficits at 5 months^45. In-house bred male transgene carriers and non-carrier (WT) littermates were used at different ages that are indicated throughout the manuscript. Prox1^LacZ mice (designated Prox1^+/− mice in this manuscript) on a NMRI background (kindly provided by Dr. Guillermo Oliver, Northwestern University, Chicago, IL) were also bred in-house and used in this study as a constitutive model for dysfunctional lymphatic vessels^46. Mice of all strains were housed in an environment with controlled temperature and humidity, on 12 hours light/dark cycles (lights on at 7:00), and fed with regular rodent's chow and sterilized tap water ad libitum. All experiments were approved by the Institutional Animal Care and Use Committee of the University of Virginia.

The mark [2] stands for this setting: after meningeal lymphatic ablation (Visudyne/photoconversion) and MWM.
The mark [3] stands for this setting: Visudyne/photoconversion for 1.5 months.

Turning to verteporfin [Visudyne], the MWM spatial learning result in the test with mice is “significant deficits in spatial learning”. In test [1] (setting [2]), the “number of genes down-regulated in the hippocampus” value turned out to be 2138 genes and the “number of genes up-regulated in the hippocampus” value is 1599 genes. Moreover, the “hippocampal transcriptome (RNA-seq principal component analysis) without MWM” value in test [1] (four weeks of meningeal lymphatic ablation, Visudyne/photoconversion vs vehicle/photoconversion) is “did not induce significant changes; also recorded: did not show a differential clustering”. The “hippocampal gene expression (RNA-seq) after MWM performance” value in test [1] (prolonged meningeal lymphatic ablation, Visudyne/photoconversion vs vehicle/photoconversion) is listed as “significant differences in hippocampal gene expression; also recorded: differential clustering”. Further, the “amyloid deposition in the meninges” value in the test with 5×FAD mice (Visudyne/photoconversion every 3 weeks for 1.5 months from ~2 months of age) was “marked deposition of amyloid in the meninges”. Moreover, in the test on 5×FAD mice (setting [3]), the “brain amyloid burden in the hippocampi” value is listed as “aggravation of brain amyloid burden” and the “macrophage recruitment to Aβ aggregates in meninges” value is “macrophage recruitment to large Aβ aggregates”.
